Results on twelve compounds are retold here after PMC11360041 (ACS Omega, 2024).

The subject of assay [1] is TMV. Conditions: 500 mg/L; cited from earlier work.
Assay [2] deals with TMV. As to conditions: 500 mg/L; cited from earlier work. This is another data set of the same source.
Assay [3] relates to TMV. Conditions: 500 mg/L; cited from earlier work. This is another data set of the same source.
In the next assay the test system is Alternaria solani. Type of assay: cell-based. Conditions: read-out: Inhibition rate, As.
For assay [4], the system named is TMV. As to the kind of experiment: Protective effect of compounds against TMV in vivo. More on the design: species or system tobacco mosaic virus. As to conditions: for inhibition at 100 µg/mL / inhibition at 500 µg/mL: Tobacco mosaic virus, read-out: relative inhibition rate (%) protective effect.
Assay [5] relates to TMV. The assay is described as follows: Curative effect of compounds against TMV in vivo. Conditions: Tobacco mosaic virus, read-out: relative inhibition rate (%) curative effect.
A further assay concerns Physalospora piricola. Type of assay: cell-based. Conditions: read-out: Inhibition rate, Pp, 50 mg/L, Physalospora piricola.
For a further assay, the system named is watermelon anthracnose. As to the kind of experiment: organism not typed. Type of assay: cell-based. Conditions: read-out: Inhibition rate, Wa.
Assay [6] concerns the target T1, TMV coat protein (TMV-CP) (Tobacco mosaic virus, UniProt P69687).
T1 sequence (P69687 2-159 limits assumed): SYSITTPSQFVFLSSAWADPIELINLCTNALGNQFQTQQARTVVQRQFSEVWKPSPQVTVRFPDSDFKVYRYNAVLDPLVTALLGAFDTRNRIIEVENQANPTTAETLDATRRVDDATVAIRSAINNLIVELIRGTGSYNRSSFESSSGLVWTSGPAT
As to the kind of experiment: Microscale thermophoresis binding to TMV-CP.

A further assay concerns TMV particles. The assay is described as follows: Morphological observation of TMV particles via transmission electron microscopy. Set-up: species or system tobacco mosaic virus. Conditions: 500 mg/L.
For assay [7], the system named is 14 kinds of phytopathogenic fungi. As to the kind of experiment: Fungicidal activity against 14 kinds of phytopathogenic fungi. Type of assay: cell-based. As to conditions: read-out: inhibitory rate against three fungi.
For the next assay, the system named is Bipolaris maydis. It is filed as cell-based. As to conditions: read-out: Inhibition rate, Bm.
The test system of the next assay is Sclerotinia sclerotiorum. Type of assay: cell-based. Conditions: read-out: Inhibition rate, Ss.
In assay [8] the test system is TMV. The assay is described as follows: Inactivation effect of compounds against TMV in vivo. Set-up: species or system tobacco mosaic virus. As to conditions: for inhibition at 100 µg/mL / inhibition at 500 µg/mL: Tobacco mosaic virus, read-out: relative inhibition rate (%) inactive effect.
Assay [9] deals with Fusarium oxysporium f. sp. cucumeris. Type of assay: cell-based. Conditions: read-out: Inhibition rate, Fc.
The subject of a further assay is Phytophthora capsici. Type of assay: cell-based. Conditions: read-out: Inhibition rate, Pc.
The subject of the next assay is Botrytis cinerea. Type of assay: cell-based. Conditions: read-out: Inhibition rate, Bc.
For a further assay, the system named is Rhizoctonia solani. It is filed as cell-based. Conditions: read-out: Inhibition rate, Rs.
The next assay concerns Fusarium graminearum. The assay is described as follows: microbe, parasite or virus in culture. It is filed as cell-based. Conditions: read-out: Inhibition rate, Fg.
Assay [10] deals with TMV. As to conditions: cited from earlier work.

Entries after “also recorded” stand apart in the source; their conditions may differ.

Consider `Cn1ccc(=O)c2ccccc21` [echinopsine], for which the “inactive activity against TMV” value with TMV [1] is listed as 49.5%. In addition, the “protective activity against TMV” value in the assay on TMV [2] is given as 42.6%. Further, the “curative activity against TMV” value in the assay with TMV [3] is 46.1%.

As for `COc1cccc(C=NNC(=O)Cn2ccc(=O)c3ccccc32)c1` [Compound 4], the inhibition at 50 µg/mL in the assay on Alternaria solani was 61.5 ± 3.2%; with Physalospora piricola it was 38.2 ± 1.7%; with watermelon anthracnose it was 39.5 ± 1.1%; in assay [7], more than 40%; with Bipolaris maydis it was 33.3 ± 1.4%; in the assay with Sclerotinia sclerotiorum, 36.6 ± 1.5%. In addition, the inhibition at 50 µg/mL in assay [9] is 36.7 ± 1.4%; in the assay with Phytophthora capsici, 38.1 ± 1.7%; in the assay with Botrytis cinerea, 14.6 ± 0.7%; with Rhizoctonia solani it was 57.1 ± 2.3%; with Fusarium graminearum, 38.1 ± 1.9%. The inhibition at 100 µg/mL in the assay on TMV [4] was determined as 15.8 ± 2.5%; in the assay with TMV [5], 14 ± 0.5%; in the assay on TMV [8], 16.8 ± 0.3%. Further, the inhibition at 500 µg/mL turned out to be 46.3 ± 1.8% in the assay on TMV [4], 47.6 ± 2.5% in the assay on TMV [5] and 51.2 ± 1.9% in the assay with TMV [8]. In assay [6], the Kd is 0.142 ± 0.06 µM. The “effect on the morphology of TMV particles (TEM)” value with TMV particles was “hindered the self-assembly and growth of TMV; also recorded: fragmented into shorter rods”.

Consider `CNCC(=O)N[C@@H](CO)C(=O)N[C@H]1[C@H](O)[C@@H](O)[C@H](n2ccc(N)nc2=O)O[C@@H]1C(N)=O` [Ningnanmycin], for which the “actual inhibitory effect in the field” value in the assay with TMV [10] was “lower than 60%”.

Consider `O=C(Cn1ccc(=O)c2ccccc21)NN=Cc1ccc(-c2ccccc2)cc1` [Compound 11], for which the inhibition at 50 µg/mL with Alternaria solani was determined as 38.5 ± 2.4%; in the assay with Physalospora piricola it was 17.6 ± 1.6%; with watermelon anthracnose, 14 ± 1.7%; with Bipolaris maydis it was 11.1 ± 0.9%; in the assay with Sclerotinia sclerotiorum it was 22 ± 1.4%; in assay [9], 22.4 ± 1.3%. The inhibition at 50 µg/mL in the assay with Phytophthora capsici was determined as 26.2 ± 1.5%; in the assay with Botrytis cinerea, 25 ± 1.8%; with Rhizoctonia solani, 35.7 ± 2.2%; in the assay with Fusarium graminearum, 9.5 ± 0.7%. Besides, the inhibition at 100 µg/mL in the assay on TMV [4] amounted to 20.9 ± 0.4%; with TMV [5], 10.1 ± 2%; in the assay with TMV [8], 19.8 ± 2.8%. The figures for the inhibition at 500 µg/mL in the assay on TMV [4], with TMV [5] and in the assay with TMV [8] were 45.2 ± 1.1%, 43 ± 2.7% and 49.6 ± 3.9%, respectively.

Turning to `NNC(=O)Cn1ccc(=O)c2ccccc21` [C, (4-Oxo-4H-quinolin-1-yl)-acetic Acid Hydrazide], the inhibition at 100 µg/mL with TMV [4] was determined as 11.4 ± 2.9%; with TMV [5] it was 8.2 ± 0.5%; in the assay with TMV [8], 17.2 ± 1.1%. Also, the figures for the inhibition at 500 µg/mL with TMV [4], in the assay with TMV [5] and in the assay with TMV [8] were 47.8 ± 4.8%, 31.5 ± 2% and 45.9 ± 3.3%, respectively.

For `O=C(Cn1ccc(=O)c2ccccc21)NN=Cc1ccc(C(F)(F)F)cc1` [Compound 17], the inhibition at 50 µg/mL was 15.4 ± 1.3% in the assay with Alternaria solani; 47.1 ± 1.4% in the assay with Physalospora piricola; 11.6 ± 1.2% in the assay with watermelon anthracnose; 8.9 ± 0.9% in the assay with Bipolaris maydis; 22 ± 1.3% in the assay with Sclerotinia sclerotiorum; 26.5 ± 1.7% in assay [9]. Also, the inhibition at 50 µg/mL with Phytophthora capsici worked out at 9.5 ± 0.8%; with Botrytis cinerea it was 18.8 ± 1.5%; in the assay with Rhizoctonia solani, 3.6 ± 0.7%; in the assay with Fusarium graminearum, 19 ± 1.2%. Also, the inhibition at 100 µg/mL in the assay on TMV [4] is 19 ± 1.8%; in the assay on TMV [5], 17.7 ± 1.5%; with TMV [8], 7.5 ± 0.2%. For the same compound, the inhibition at 500 µg/mL in the assay with TMV [4] came out at 44.1 ± 1.4%; in the assay on TMV [5], 49.2 ± 3%; in the assay on TMV [8], 47.1 ± 1.9%.

On to `O=C(Cn1ccc(=O)c2ccccc21)NN=Cc1cc2ccccc2[nH]1` [Compound 23], for which the inhibition at 50 µg/mL with Alternaria solani was 15.4 ± 1.5%; in the assay with Physalospora piricola, 51.5 ± 2.3%; in the assay on watermelon anthracnose, 11.6 ± 0.9%; with Bipolaris maydis, 8.9 ± 1.1%; in the assay on Sclerotinia sclerotiorum, 12.2 ± 0.9%; in assay [9], 6.1 ± 1.3%. Also, the inhibition at 50 µg/mL worked out at 31 ± 2.1% in the assay with Phytophthora capsici, 10.4 ± 1.2% in the assay with Botrytis cinerea, 3.6 ± 0.5% with Rhizoctonia solani and 14.3 ± 1.1% in the assay with Fusarium graminearum. The “relative inhibition rate (%) protective effect” value in the assay on TMV [4] (100 mg/L, in vivo, against TMV) was “did not exhibit any”. Besides, the inhibition at 100 µg/mL came to 0% with TMV [4], 6.6 ± 1.9% with TMV [5] and 0% in the assay on TMV [8]. Further, the inhibition at 500 µg/mL in the assay with TMV [4] turned out to be 43.9 ± 1%; with TMV [5], 32.5 ± 4.1%; in the assay on TMV [8] it was 40.1 ± 2.7%. For the same compound, the “relative inhibition rate (%) inactive effect” value in the assay with TMV [8] (100 mg/L, in vivo, against TMV) is given as “did not exhibit any”.

For `NC(=O)c1ncn([C@@H]2O[C@H](CO)[C@@H](O)[C@H]2O)n1` [Ribavirin, reference compound], the inhibition at 100 µg/mL was determined as 13.4 ± 0.7% with TMV [4], 10.1 ± 1.6% with TMV [5] and 12.1 ± 1.4% with TMV [8]. Moreover, the inhibition at 500 µg/mL in the assay on TMV [4] came to 40.8 ± 1%; in the assay on TMV [5], 38 ± 2.2%; with TMV [8] it was 39.2 ± 3.5%. The Kd in assay [6] was determined as 0.512 ± 0.257 µM. Besides, the “effect on the morphology of TMV particles (TEM)” value with TMV particles was “fragmented into shorter rods”.

Turning to `Cc1ccc(C=NNC(=O)Cn2ccc(=O)c3ccccc32)cc1` [Compound 2], the inhibition at 50 µg/mL with Alternaria solani came to 30.8 ± 1.6%; in the assay on Physalospora piricola, 17.6 ± 1.4%; with watermelon anthracnose, 14 ± 1.3%; in the assay on Bipolaris maydis, 11.1 ± 2.1%; in the assay on Sclerotinia sclerotiorum it was 12.2 ± 1.2%; in [9], 28.6 ± 2.3%. The inhibition at 50 µg/mL in the assay with Phytophthora capsici is 26.2 ± 1.8%; with Botrytis cinerea, 25 ± 1.5%; in the assay with Rhizoctonia solani, 17.9 ± 1.7%; in the assay on Fusarium graminearum, 14.3 ± 1.3%. For the same compound, in the assay with TMV [8], the inhibition at 100 µg/mL came to 0%. For the same compound, in the assay with TMV [8], the inhibition at 500 µg/mL was found to be 26.7 ± 3%.

Consider `O=C(Cn1ccc(=O)c2ccccc21)NN=Cc1coc2ccccc12` [Compound 24], for which the inhibition at 50 µg/mL with Alternaria solani was 23.1 ± 1.3%; in the assay with Physalospora piricola, 17.6 ± 1.2%; with watermelon anthracnose it was 9.3 ± 0.7%; in the assay on Bipolaris maydis, 11.1 ± 1.8%; in the assay on Sclerotinia sclerotiorum it was 12.2 ± 0.5%; in assay [9] it was 22.4 ± 1.2%. Moreover, the inhibition at 50 µg/mL with Phytophthora capsici turned out to be 19 ± 0.9%; with Botrytis cinerea, 20.8 ± 1.5%; in the assay with Rhizoctonia solani, 17.9 ± 1.5%; with Fusarium graminearum, 19 ± 1.2%. Further, the inhibition at 100 µg/mL in the assay with TMV [8] came out at 0%. The inhibition at 500 µg/mL with TMV [8] was 33.5 ± 0.6%.

Regarding `O=C(Cn1ccc(=O)c2ccccc21)NN=Cc1cscn1` [Compound 22], the inhibition at 50 µg/mL is 7.7 ± 1.2% in the assay on Alternaria solani; 32.4 ± 1.3% in the assay with Physalospora piricola; 14 ± 1.7% in the assay with watermelon anthracnose; 8.9 ± 0.8% in the assay on Bipolaris maydis; 7.3 ± 0.9% with Sclerotinia sclerotiorum; 12.2 ± 1.6% in [9]. Also, the inhibition at 50 µg/mL in the assay on Phytophthora capsici came to 26.2 ± 1.5%; with Botrytis cinerea, 25 ± 2.1%; with Rhizoctonia solani, 26.8 ± 1.1%; in the assay on Fusarium graminearum it was 2.4 ± 0.5%. Moreover, the inhibition at 100 µg/mL with TMV [8] turned out to be 0%. Also, the inhibition at 500 µg/mL with TMV [8] was found to be 23.9 ± 1.1%.

In the case of `O=C(Cn1ccc(=O)c2ccccc21)NN=Cc1ccc(Cl)cc1` [Compound 13], the inhibition at 50 µg/mL amounted to 30.8 ± 1.3% in the assay on Alternaria solani; 17.6 ± 1.5% in the assay with Physalospora piricola; 27.9 ± 2.3% with watermelon anthracnose; 8.9 ± 0.7% with Bipolaris maydis; 7.3 ± 0.5% with Sclerotinia sclerotiorum; 24.5 ± 1.3% in assay [9]. Further, the inhibition at 50 µg/mL in the assay on Phytophthora capsici amounted to 14.3 ± 1.3%; in the assay on Botrytis cinerea it was 14.6 ± 1.3%; in the assay with Rhizoctonia solani, 12.5 ± 1.4%; in the assay on Fusarium graminearum, 2.4 ± 0.9%. In addition, the inhibition at 100 µg/mL in the assay with TMV [8] was found to be 0%. In the assay with TMV [8], the inhibition at 500 µg/mL amounted to 18.6 ± 0.7%.
